Test results from patent US10759803B2, “Asparagine endopeptidase (AEP) inhibitors for managing cancer and compositions related thereto” (priority 2014, dated 2020).

Columns and labels:
[1] = target: CYP2D6 (Homo sapiens, UniProt P10635); experiment: CYP inhibition screening, CYP2D6; assay type: in vitro ADME
[2] = test system: Caco-2 monolayer; experiment: Caco-2 monolayer permeability screen; conditions: Table 1
Protocol: To explore the in vitro ADME profiles of the compounds, additional tests were conducted.

[3] = target: CYP2C19 (Homo sapiens, UniProt P33261); experiment: CYP inhibition screening, CYP2C19; assay type: in vitro ADME
Chain of CYP2C19 (P33261 whole entry): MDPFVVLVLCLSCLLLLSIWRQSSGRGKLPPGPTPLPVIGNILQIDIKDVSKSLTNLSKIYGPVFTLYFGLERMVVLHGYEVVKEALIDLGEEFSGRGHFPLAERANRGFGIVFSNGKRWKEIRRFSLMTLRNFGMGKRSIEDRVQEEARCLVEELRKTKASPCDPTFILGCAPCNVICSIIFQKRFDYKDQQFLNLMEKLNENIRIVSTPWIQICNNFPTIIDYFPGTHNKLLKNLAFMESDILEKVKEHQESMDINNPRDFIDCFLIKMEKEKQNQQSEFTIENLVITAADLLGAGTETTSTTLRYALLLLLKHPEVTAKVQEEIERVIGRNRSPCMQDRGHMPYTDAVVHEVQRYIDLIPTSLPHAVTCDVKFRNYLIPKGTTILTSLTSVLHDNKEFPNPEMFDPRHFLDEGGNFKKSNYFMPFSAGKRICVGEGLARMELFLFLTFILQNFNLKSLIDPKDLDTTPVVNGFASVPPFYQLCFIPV

[4] = target: Caspase-8 (Homo sapiens, UniProt Q14790); experiment: Specificity assay against Caspase-8; assay type: biochemical
Chain of Caspase-8 (Q14790 217-374 limits assumed, species assumed): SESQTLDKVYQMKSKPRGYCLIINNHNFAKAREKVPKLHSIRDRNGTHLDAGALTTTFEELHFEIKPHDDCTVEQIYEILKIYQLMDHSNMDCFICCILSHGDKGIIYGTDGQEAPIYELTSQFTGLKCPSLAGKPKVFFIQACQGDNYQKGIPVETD
Chain of Caspase-8 (Q14790 385-479 limits assumed, species assumed): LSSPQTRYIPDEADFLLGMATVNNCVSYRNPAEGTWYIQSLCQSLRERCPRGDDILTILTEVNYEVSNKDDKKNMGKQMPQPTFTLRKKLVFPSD
Protocol: (§1) Purified recombinant enzyme was incubated with various concentrations of inhibitor in appropriate assay buffers in the presence of increasing concentrations of inhibitor. The formation of fluorescent product was monitored in duplicate reactions and the data was fit to appropriate equations to calculate the IC50 values.
(§2) To identify small-molecule inhibitors of AEP, a high-throughput screen was designed in conjunction with the Emory Chemical Biology Discovery Center. The screen incorporated mouse kidney lysates to assay a 54,384 compound library. […] Additional structural analysis and grouping allowed the compounds to be sorted into 8 distinct backbone families. […] The specificity of the compounds was also determined using four major cysteine proteases (FIG. 2).

[5] = test system: CYP3A; experiment: CYP inhibition screening, CYP3A-Testosterone; assay type: in vitro ADME
[6] = target: CYP3A4 (Homo sapiens, UniProt P08684); experiment: CYP inhibition screening, CYP3A4-Midazolam; assay type: in vitro ADME
Chain of CYP3A4 (P08684 whole entry): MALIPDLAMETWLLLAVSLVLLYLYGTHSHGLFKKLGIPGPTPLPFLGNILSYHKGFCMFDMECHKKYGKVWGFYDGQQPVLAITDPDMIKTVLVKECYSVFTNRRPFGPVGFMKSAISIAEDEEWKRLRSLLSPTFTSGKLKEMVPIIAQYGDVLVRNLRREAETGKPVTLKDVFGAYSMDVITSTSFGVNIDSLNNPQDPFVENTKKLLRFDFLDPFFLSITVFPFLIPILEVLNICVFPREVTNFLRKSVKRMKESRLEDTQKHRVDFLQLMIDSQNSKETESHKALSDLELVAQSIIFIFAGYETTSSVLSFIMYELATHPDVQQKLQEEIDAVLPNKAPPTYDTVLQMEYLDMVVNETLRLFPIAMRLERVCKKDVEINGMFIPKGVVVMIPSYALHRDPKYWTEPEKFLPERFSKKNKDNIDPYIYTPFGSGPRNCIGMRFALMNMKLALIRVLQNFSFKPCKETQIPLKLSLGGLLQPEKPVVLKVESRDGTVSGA

[7] = target: T1, AEP (Homo sapiens, UniProt Q99538); experiment: IC50 assay with purified recombinant AEP; assay type: biochemical; conditions: purified active AEP; read-out: IC50 toward AEP
T1 construct: tested with purified active AEP, IC50 values for the top 8 candidates were found
T1 sequence (Q99538 18-323 limits assumed): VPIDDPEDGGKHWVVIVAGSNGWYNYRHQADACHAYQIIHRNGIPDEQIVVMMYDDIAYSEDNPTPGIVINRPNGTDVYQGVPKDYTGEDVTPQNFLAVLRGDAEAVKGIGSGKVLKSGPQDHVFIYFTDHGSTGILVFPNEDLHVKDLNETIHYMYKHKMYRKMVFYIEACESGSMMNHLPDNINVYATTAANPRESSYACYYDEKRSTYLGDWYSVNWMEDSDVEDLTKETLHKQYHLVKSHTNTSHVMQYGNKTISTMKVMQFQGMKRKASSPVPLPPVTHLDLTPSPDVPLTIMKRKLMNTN
Protocol: as §1, §2
Various concentrations of the appropriate compound were incubated with AEP reaction buffer (50 mM Sodium Citrate pH 5.5, 0.1% CHAPS, 60 mM Na2HPO4, 1 mM EDTA, final pH 6.0) and peptide substrate, 10 μM Cbz-Ala-Ala-Asn-AMC (Bachem). The reaction was initiated upon addition of 50 nM AEP and fluorescent product formation was monitored over 15 min. […] Data were analyzed with GraFit version 5.0.11 software package.

[8] = target: T2, Caspase-3 (Homo sapiens, UniProt P42574); experiment: Specificity assay against Caspase-3; assay type: biochemical
T2 sequence (P42574 29-175 limits assumed): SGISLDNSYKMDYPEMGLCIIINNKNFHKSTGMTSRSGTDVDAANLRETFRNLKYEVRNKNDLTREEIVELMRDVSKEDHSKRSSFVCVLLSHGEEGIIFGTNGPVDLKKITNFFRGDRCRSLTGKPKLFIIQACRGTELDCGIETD
T2 sequence (P42574 176-277 limits assumed): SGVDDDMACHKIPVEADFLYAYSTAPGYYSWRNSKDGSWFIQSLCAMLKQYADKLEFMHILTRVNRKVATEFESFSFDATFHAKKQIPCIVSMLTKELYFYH
Protocol: as §1, §2

[9] = target: Cathepsin-S (Homo sapiens, UniProt P25774); experiment: Specificity assay against Cathepsin-S; assay type: biochemical
Chain of Cathepsin-S (P25774 115-331, species assumed): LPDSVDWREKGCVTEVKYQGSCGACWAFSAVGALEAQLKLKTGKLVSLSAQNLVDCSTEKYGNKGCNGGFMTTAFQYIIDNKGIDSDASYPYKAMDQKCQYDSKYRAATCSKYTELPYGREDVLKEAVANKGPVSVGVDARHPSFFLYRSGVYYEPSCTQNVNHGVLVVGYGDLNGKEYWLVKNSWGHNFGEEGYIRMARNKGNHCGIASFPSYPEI
Protocol: as §1, §2

[10] = target: Cathepsin-L (Homo sapiens, UniProt P07711); experiment: Specificity assay against Cathepsin-L; assay type: biochemical
Chain of Cathepsin-L (P07711 114-333, species assumed): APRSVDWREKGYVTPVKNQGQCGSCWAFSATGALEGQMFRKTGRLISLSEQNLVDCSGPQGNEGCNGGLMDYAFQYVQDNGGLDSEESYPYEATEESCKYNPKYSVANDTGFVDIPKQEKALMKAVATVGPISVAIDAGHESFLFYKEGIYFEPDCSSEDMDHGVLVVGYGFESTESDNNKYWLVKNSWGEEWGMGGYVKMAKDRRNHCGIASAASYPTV

[11] = target: CYP2C9 (Homo sapiens, UniProt P11712); experiment: CYP inhibition screening, CYP2C9; assay type: in vitro ADME
Chain of CYP2C9 (P11712 whole entry): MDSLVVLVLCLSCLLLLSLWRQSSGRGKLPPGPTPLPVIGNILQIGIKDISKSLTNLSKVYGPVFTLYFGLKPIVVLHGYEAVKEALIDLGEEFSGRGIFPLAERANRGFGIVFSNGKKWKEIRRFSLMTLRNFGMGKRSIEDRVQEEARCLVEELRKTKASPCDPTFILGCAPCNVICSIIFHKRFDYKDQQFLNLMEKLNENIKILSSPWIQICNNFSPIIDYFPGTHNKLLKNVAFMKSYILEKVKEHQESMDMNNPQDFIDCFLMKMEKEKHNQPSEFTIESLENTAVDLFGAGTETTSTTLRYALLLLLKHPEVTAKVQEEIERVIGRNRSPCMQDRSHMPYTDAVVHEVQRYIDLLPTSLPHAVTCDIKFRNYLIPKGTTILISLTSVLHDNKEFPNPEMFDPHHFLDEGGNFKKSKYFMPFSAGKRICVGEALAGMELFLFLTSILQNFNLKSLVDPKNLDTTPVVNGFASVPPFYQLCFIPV

[12] = target: T3, CYP1A2 (Homo sapiens, UniProt P05177); experiment: CYP inhibition screening, CYP1A2; assay type: in vitro ADME
T3 sequence (P05177 1-516): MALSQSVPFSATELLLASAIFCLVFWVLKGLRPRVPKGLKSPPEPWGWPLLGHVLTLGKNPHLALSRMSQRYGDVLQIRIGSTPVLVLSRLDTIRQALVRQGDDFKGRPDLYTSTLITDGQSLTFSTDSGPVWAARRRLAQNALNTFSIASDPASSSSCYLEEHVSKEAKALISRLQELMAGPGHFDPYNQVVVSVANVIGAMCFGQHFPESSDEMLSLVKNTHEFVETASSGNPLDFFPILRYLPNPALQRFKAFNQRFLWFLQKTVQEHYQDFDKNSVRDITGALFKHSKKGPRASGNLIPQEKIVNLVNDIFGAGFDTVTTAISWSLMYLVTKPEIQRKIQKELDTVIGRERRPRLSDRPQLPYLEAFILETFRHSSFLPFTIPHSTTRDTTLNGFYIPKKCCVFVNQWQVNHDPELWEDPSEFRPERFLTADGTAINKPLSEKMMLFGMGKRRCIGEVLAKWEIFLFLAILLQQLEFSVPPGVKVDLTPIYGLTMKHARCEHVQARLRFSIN

[13] = test system: amyloid precursor protein (APP) cleavage; experiment: APP cleavage in OGD-treated primary cortical neurons; assay type: cell-based
Protocol: (§3) A. AEP activity, measured in primary neuronal cultures with 5 μM Cbz-Ala-Ala-Asn-AMC (x-axis denotes neurons were treated with 0.1 μM or 1.0 μM specified compound). B. Caspase activity, measured in primary neuronal cultures with 5 μM Ac-Asp-Glu-Val-Asp-AMC. C. Cathepsin activity, measured in primary neuronal cultures with 5 μM D-Val-Leu-Lys-AMC. D. Inhibition of APP cleavage. Lysates of primary cortical neurons pre-incubated with compounds for 30 min, underwent OGD for 4 hrs, were reperfused for 18 hrs (normoxia neurons remained at normoxic conditions). E. APP can be cleaved in a dose-dependent manner. Lysates of primary cortical neurons pre-incubated with compounds for 30 min, underwent OGD for 4 hrs, were reperfused for 18 hrs (normoxia neurons remained at normoxic conditions).
Depriving cells of oxygen and glucose is a cellular model that is employed to trigger acidosis in cultured cells. The efficacy of the compounds in a cellular model of oxygen-glucose deprivation (OGD) was determined in an effort to mimic the effects of stroke in primary cultured neurons. As a result of depriving neurons of oxygen and glucose-containing medium, AEP activity was doubled (FIG. 7A, ‘DMSO-Norm’ compared to ‘DMSO-OGD’), while Caspase-3 and Cathepsin activities remained relatively unchanged. […] Cleavage of APP is observed in response to only DMSO treatment (FIG. 7D, lane 2), and it appears that upon the treatment of 1 μM of compounds 10, 11, and 12, and just 0.1 μM of compound s31, 38 and 64, the cleavage was blocked, presumably due to AEP inhibition.

[14] = Mouse liver microsomal stability screen; conditions: Mouse liver microsomes
[15] = BBB-PAMPA permeability assay; assay type: in vitro ADME
[16] = test system: AEP; experiment: AEP activity in OGD-treated primary neurons; assay type: cell-based; conditions: 0.1 μM or 1.0 μM compound, 5 μM Cbz-Ala-Ala-Asn-AMC
Protocol: as §3
Depriving cells of oxygen and glucose is a cellular model that is employed to trigger acidosis in cultured cells. The efficacy of the compounds in a cellular model of oxygen-glucose deprivation (OGD) was determined in an effort to mimic the effects of stroke in primary cultured neurons. As a result of depriving neurons of oxygen and glucose-containing medium, AEP activity was doubled (FIG. 7A, ‘DMSO-Norm’ compared to ‘DMSO-OGD’), while Caspase-3 and Cathepsin activities remained relatively unchanged. […]

[17] = Human liver microsomal stability screen; conditions: Human liver microsomes

Chain of CYP2D6 (P10635 whole entry): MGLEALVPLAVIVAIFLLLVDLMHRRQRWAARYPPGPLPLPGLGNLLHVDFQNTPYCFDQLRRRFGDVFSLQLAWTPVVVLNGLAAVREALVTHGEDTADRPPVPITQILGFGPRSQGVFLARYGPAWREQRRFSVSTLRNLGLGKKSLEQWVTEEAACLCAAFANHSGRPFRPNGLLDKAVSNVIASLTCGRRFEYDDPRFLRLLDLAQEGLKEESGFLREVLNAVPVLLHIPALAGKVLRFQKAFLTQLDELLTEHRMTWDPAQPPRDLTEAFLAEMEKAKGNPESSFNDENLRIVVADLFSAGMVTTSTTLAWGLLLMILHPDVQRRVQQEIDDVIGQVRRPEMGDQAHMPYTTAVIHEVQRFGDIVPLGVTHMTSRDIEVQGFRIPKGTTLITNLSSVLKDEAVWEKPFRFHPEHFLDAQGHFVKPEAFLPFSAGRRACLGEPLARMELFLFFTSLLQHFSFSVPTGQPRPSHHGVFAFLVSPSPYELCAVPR

SMILES: CCN(CC)c1ccc(CN2CCc3nc(C)[nH]c(=O)c3C2)c(OC)c1 [Compound 64]
- CYP2D6 inhibition ([1]; 3 μM): 34.6%
- CYP2D6 inhibition ([1]; 10 μM): 58.3%
- A −>B Papp [2]: <LLOQ
- B −> A Papp [2]: <LLOQ
- CYP2C19 inhibition ([3]; 3 μM): 31.6%
- CYP2C19 inhibition ([3]; 10 μM): 20.4%
- selectivity for AEP over Caspase-8 [4]: over 40 fold
- CYP3A-Testosterone inhibition ([5]; 3 μM): 1.5%
- CYP3A-Testosterone inhibition ([5]; 10 μM): −0.1%
- CYP3A4-Midazolam inhibition ([6]; 3 μM): 0.6%
- CYP3A4-Midazolam inhibition ([6]; 10 μM): 10.1%
- IC50 [7]: 2370 nM
- selectivity for AEP over Caspase-3 [8]: about 6 fold
- selectivity for AEP over Cathepsin-S [9]: over 40 fold
- selectivity for AEP over Cathepsin-L [10]: over 40 fold
- CYP2C9 inhibition ([11]; 3 μM): 4.6%
- CYP2C9 inhibition ([11]; 10 μM): 7.9%
- CYP1A2 inhibition ([12]; 3 μM): 73.7%
- CYP1A2 inhibition ([12]; 10 μM): 22.2%
- APP cleavage after OGD ([13]; 0.1 μM compound): blocked

SMILES: Cc1cccc(NCc2ccc(O)c3ncccc23)c1C [Compound 12]
- CYP2D6 inhibition ([1]; 3 μM): 2.9%
- CYP2D6 inhibition ([1]; 10 μM): −2.6%
- A −>B Papp [2]: 1.4 10^−6 cm · s^−1
- B −> A Papp [2]: 3.7 10^−6 cm · s^−1
- RE [2]: 2.7
- CYP2C19 inhibition ([3]; 3 μM): 13.4%
- CYP2C19 inhibition ([3]; 10 μM): 29.4%
- CYP3A-Testosterone inhibition ([5]; 3 μM): 14.2%
- CYP3A-Testosterone inhibition ([5]; 10 μM): 27.6%
- CYP3A4-Midazolam inhibition ([6]; 3 μM): −2.5%
- CYP3A4-Midazolam inhibition ([6]; 10 μM): −2.5%
- Mean Remaining Parent (NADPH-free) [14]: 0%
- Mean Remaining Parent (with NADPH) [14]: 1%
- Pe [15]: <LLOQ
- CYP2C9 inhibition ([11]; 3 μM): 4.3%
- CYP2C9 inhibition ([11]; 10 μM): −2.7%
- AEP activity in OGD neurons [16]: slight decrease
- Mean Remaining Parent (NADPH-free) [17]: 1%
- Mean Remaining Parent (with NADPH) ([17]; 30 min): 1%
- CYP1A2 inhibition ([12]; 3 μM): 28.4%
- CYP1A2 inhibition ([12]; 10 μM): 44.5%
- APP cleavage after OGD ([13]; 1 μM compound): blocked
- APP cleavage after OGD, dose dependence ([13]; FIG. 7E): dose-dependent decrease
